Where “and” joins values, the source holds several entries; their conditions need not be identical. Identical values can stand only once.
Key:
Format in all cases: cell-based
[1] = test system: Sox17 expression in human embryonic stem cells (H9 line); assay: High content screening assay: Sox17 protein expression (differentiation); conditions: for fold induction at 10 µM: Homo sapiens, Embryonic stem cell, 10 μM test compound with 100 ng/ml activin A on days 1-2, H9, total intensity by IN Cell Analyzer, strong and moderate hits, read-out: SOX17 Expression, Fold over Wnt 3a/AA control
In short: (§1)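 H9 hESCs on MATRIGEL treated days 1-2 with 10 μM compound in DMEM:F12, 0.5% FCS, 100 ng/ml activin A; days 3-4 with 2% FCS plus activin A without compound. Fixed cells immunostained for Sox17 or HNF-3beta with Draq5 nuclear counterstain. Cell number and staining intensity quantified by high-content imaging, 12 fields/well.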

[2] = test system: HNF-3beta expression in human embryonic stem cells (H9 line); assay: High content screening assay: HNF-3beta protein expression (differentiation); conditions: for fold induction at 10 µM: Homo sapiens, Embryonic stem cell, 10 μM test compound with 100 ng/ml activin A on days 1-2, H9, total intensity by IN Cell Analyzer, strong and moderate hits, read-out: HNF3β Expression, Fold over Wnt 3a/AA control
In short: as §1

[3] = test system: cells expressing pluripotency markers derived from human embryonic stem cells; assay: MTS viability (toxicity) assay of cells expressing pluripotency markers; design: Raw data (duplicate), first replicate / Average: unit not given here; conditions: for viability at 10 µM: Homo sapiens, Embryonic stem cell, viability of cells expressing pluripotency markers, relative to control; for Average of raw data (duplicate), optical density at 490 nm: MTS on day 4
In short: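 A GSK-3B inhibitor library was screened for toxicity to pluripotency-marker-expressing cells. Compound was given in DMEM:F12 with 0.5% FCS and 100 ng/ml Activin A for two days, then replaced by medium with 2% FCS and Activin A. On day 4, MTS absorbance at 490 nm gave viability as percent of Activin A plus Wnt3a control wells.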

[4] = MTS viability assay raw reading, replicate 1
[5] = MTS viability assay raw reading, replicate 2
[6] = average of duplicate MTS raw readings
[7] = total intensity normalised to Wnt 3a/AA control

SMILES	SOX-17 Expression Total Intensity [1]	HNF-3b Expression Total Intensity [2]	viability at 10 µM [3] [%]	Raw data (duplicate), first replicate [3, 4]	Raw data (duplicate), second replicate [3, 5]	Average [3, 6]	Average of raw data (duplicate), optical density at 490 nm ([3]; cmpd conc 2.5 μM)	Average of raw data (duplicate), optical density at 490 nm ([3]; cmpd conc 5 μM)	Average of raw data (duplicate), optical density at 490 nm ([3]; cmpd conc 10 μM)	fold induction at 10 µM [1]	fold induction at 10 µM [2]	Average ([3]; MTS viability readout, average of duplicate raw data)	Raw data (duplicate), first replicate ([3]; MTS viability readout, raw value of replicate 1)	Raw data (duplicate), second replicate ([3]; MTS viability readout, raw value of replicate 2)	SOX-17 Expression Fold over Wnt 3a/AA control [1, 7] [fold]	HNF-3b Expression Fold over Wnt 3a/AA control [2, 7] [fold]
O=C1NC(=O)C(c2cn(CCOCCOCCNC3CCCc4ccccc43)c3ccccc23)=C1c1cn(CCNC2CCCc3ccccc32)c2ccccc12 (stereo not shown) [Compound 144, 3-{1-[2-(1,2,3,4-Tetrahydronaphthalen-1-ylamino)ethyl]-1H-indol-3-yl}-4-(1-{2-[(2-{[2-(1,2,3,4-tetrahydronaphthalen-1-ylamino)ethyl]oxy}ethyl)oxy]ethyl}-1H-indol-3-yl)-1H-pyrrole-2,5-dione]	339840000	231745000	106	0.840	0.832	0.836	0.2898	0.1473	0.1464							
O=C1NC(=O)C(c2cn(-c3cccnc3)c3ccccc23)=C1c1cn(CCO)c2ccccc12 [Compound 206, 3-[1-(2-Hydroxyethyl)-1H-indol-3-yl]-4-(1-pyridin-3-yl-1H-indol-3-yl)-1H-pyrrole-2,5-dione]	223646667	309900000	110	0.845	0.877	0.861	0.7517	0.7326	0.1793	1.74	1.66					
COC(=O)c1cncc(-n2cc(C3=C(c4nn(CCO)c5ccccc45)C(=O)NC3=O)c3cc(Cl)ccc32)c1 [Compound 150, Methyl 5-(5-chloro-3-{4-[1-(2-hydroxyethyl)-1H-indazol-3-yl]-2,5-dioxo-2,5-dihydro-1H-pyrrol-3-yl}-1H-indol-1-yl)pyridine-3-carboxylate]	351070000	288075000	81.7				0.7630	0.6972	0.2259			0.673	0.668	0.678		
Cc1c[nH]c(-c2cnc(NCCNc3ccc(C#N)cn3)nc2-c2ccc(Cl)cc2Cl)n1 [Compound 221, 6-[(2-{[4-(2,4-Dichlorophenyl)-5-(4-methyl-1H-imidazol-2-yl)pyrimidin-2-yl]amino}ethyl)amino]pyridine-3-carbonitrile]	1089750000	1281000000	98.8				0.9324	0.7191	0.6128	1.12	1.16					
O=C1NC(=O)C(c2cn(CCCO)c3ncccc23)=C1c1cccs1 [Compound 17, 3-[1-(3-Hydroxypropyl)-1H-pyrrolo[2,3-b]pyridin-3-yl]-4-thiophen-2-yl-1H-pyrrole-2,5-dione]	14786632	14201404	99.1	0.803	0.782	0.792										
O=C1NC(=O)C(c2cn(CCCO)c3ncccc23)=C1c1ccccc1C(F)(F)F [Compound 16, 3-[1-(3-Hydroxypropyl)-1H-pyrrolo[2,3-b]pyridin-3-yl]-4-[2-(trifluoromethyl)phenyl]-1H-pyrrole-2,5-dione]			73.7	0.641	0.601	0.621				0.648	1.1					
COc1ccccc1C1=C(c2cn(-c3ccc4ccccc4c3)c3ncccc23)C(=O)NC1=O [Compound 23, 3-[2-(Methyloxy)phenyl]-4-(1-naphthalen-2-yl-1H-pyrrolo[2,3-b]pyridin-3-yl)-1H-pyrrole-2,5-dione]	7121122	65100086	102	0.882	0.748	0.815										
Cn1cc(C2=C(c3nn(CCCn4ccnc4)c4ccccc34)C(=O)NC2=O)c2cc(Cl)ccc21 [Compound 231, 3-(5-Chloro-1-methyl-1H-indol-3-yl)-4-{1-[3-(1H-imidazol-1-yl)propyl]-1H-indazol-3-yl}-1H-pyrrole-2,5-dione]	789085000	547055000	76.7	0.640	0.636	0.638				0.811						
O=C1NC(=O)C2=C1c1cn(c3ncccc13)CCOCCOCCn1cc2c2cccnc21 [Compound 180, 6,7,9,10,12,13-Hexahydro-20H-5,23:14,19-di(metheno)dipyrido[2,3-h:3′,2′-n]pyrrolo[3,4-k][1,4,7,16]dioxadiazacyclooctadecine-20,22(21H)-dione]	0	101114		0.141 and 0.611	0.128 and 0.628										0.0000	0.0037
COCCCn1cc(C2=C(c3ccccc3O)C(=O)NC2=O)c2cccnc21 [Compound 22, 3-(2-Hydroxyphenyl)-4-{1-[3-(methyloxy)propyl]-1H-pyrrolo[2,3-b]pyridin-3-yl}-1H-pyrrole-2,5-dione]	2188847	13689421	108	0.900	0.877	0.888										
Cn1ccc(C2=C(c3cn(CCCO)c4ncccc34)C(=O)NC2=O)n1 [Compound 209]	80676667	143916667	121	0.971	0.913	0.942				0.628	0.772					
O=C1NC(=O)C(c2cn(CCCO)c3ncccc23)=C1c1cn(CCO)cn1 [Compound 183, 3-[1-(2-Hydroxyethyl)-1H-imidazol-4-yl]-4-[1-(3-hydroxypropyl)-1H-pyrrolo[2,3-b]pyridin-3-yl]-1H-pyrrole-2,5-dione]	48154	170177	82.6	0.792	0.572	0.682										
O=C1NC(=O)C(c2cn(CCCO)c3ncccc23)=C1c1cn(CCCO)cn1 [Compound 182, 3-[1-(3-Hydroxypropyl)-1H-imidazol-4-yl]-4-[1-(3-hydroxypropyl)-1H-pyrrolo[2,3-b]pyridin-3-yl]-1H-pyrrole-2,5-dione]	0	8880858	100	0.802	0.801	0.802										
